Reference: ChEMBL document CHEMBL4396911, “Recent progress in histone methyltransferase (G9a) inhibitors as anticancer agents” (Eur J Med Chem, 2019)

How the values were obtained:
[1] = test system: PANC-1; assay: Cytotoxicity against human PANC1 cells assessed as decrease in cell viability after 72 hrs by MTT assay; format: functional, cell-based; details: PANC-1, 72 h
[2] = test system: PANC-1; assay: Anticancer activity against human PANC1 cells; format: functional, cell-based

| SMILES | IC50 [1] | IC50 [2] |
| --- | --- | --- |
| CCN(CC)CCNC(=O)c1ccc(NCCN2C(=O)c3ccccc3C2=O)cc1 | 5 µM |  |
| COC(=O)c1ccc2c(c1)nc(NC(=O)c1ccccc1)n2CCCc1ccccc1 |  | 5 µM |
